Where two headings read alike, the source gives them in different places.
Assays:
Experiment in all cases: microbe, parasite or virus in culture
[1] = tested on: HIV strain IIIB (wild type); details: for pSI (IIIB) (-log SI; SI = ratio of CC50 to EC50): strain IIIB, CC50 in mock-infected MT4 CMV-EGFP cells
Experimental: Compounds of the invention were tested for their potency against wild type virus and clinically isolated HIV strains harboring one or more mutations associated with resistance to reverse transcriptase inhibitors. Antiviral activity was evaluated using a cellular assay performed according to the following procedure.
The human T-cell line MT4 was engineered with Green Fluorescent Protein (GFP) and a HIV-specific promoter, HIV-1 long terminal repeat (LTR). This cell line, designated MT4 LTR-EGFP, can be used for the in vitro evaluation of anti-HIV activity of investigational compounds. In HIV-1 infected cells, the Tat protein is produced, which upregulates the LTR promotor and eventually leads to stimulation of the GFP reporter production, allowing to measure ongoing HIV-infection fluorometrically.
Analogously, MT4 cells were engineered with GFP and the constitutional cytomegalovirus (CMV) promotor. This cell line was designated MT4 CMV-EGFP, and can be used for the in vitro evaluation of cytotoxicity of investigational compounds. […] Cytotoxic investigational compounds reduce GFP levels of mock-infected MT4 CMV-EGFP cells.
The ratio of CC50 to EC50 is defined as the selectivity index (SI) and is an indication of the selectivity of the anti-HIV activity of the inhibitor. The ultimate monitoring of HIV-1 infection and cytotoxicity was done using a scanning microscope. […] Measurements were done before cell necrosis, which usually takes place about five days after infection, in particular measurements were performed three days after infection.
The columns IIIB, L100I, etc. in the table list the pEC50 (−log EC50) values against various strains IIIB, L100I, etc.; pSI lists the −log SI values.
Strain IIIB is wild type HIV strain.

[2] = target: HIV strain MDR (L100I, K103N, Y181C, E138G, V1791, L2214F, V278V/I and A327A/V in HIV reverse transcriptase); format: cell-based, HIV-1; details: MDR strain; MT4 LTR-EGFP cells
From the text: (§1) Image analysis allowed very sensitive detection of viral infection.
“MDR” refers to a strain that contains mutations L100I, K103N, Y181C, E138G, V1791, L2214F, V278V/I and A327A/V in HIV reverse transcriptase.

[3] = tested on: HIV strain L100I + K103N; format: cell-based, HIV-1; details: L100I + K103N strain; MT4 LTR-EGFP cells
From the text: as §1

[4] = wild type HIV strain IIIB, MT4 LTR-EGFP cells, three days after infection

Structure (SMILES)	pSI (IIIB) (-log SI; SI = ratio of CC50 to EC50) [1]	IIIB pEC50 (-log EC50) [1, 4]	MDR pEC50 (-log EC50) [2]	L100I + K103N pEC50 (-log EC50) [3]	IIIB pEC50 (-log EC50) [1]
COCc1nc(Nc2ccc(C#N)cc2)nc(Nc2c(C)cc(C=CC#N)cc2C)c1C(=O)N(C)OC (mixture of isomers) [Compound 25]	4.02	8.72	6.27	7.19	
COCc1nc(Nc2ccc(C#N)cc2)nc(Oc2c(C)cc(C=C(C)C#N)cc2C)c1C(=O)NCc1ccncc1 (mixture of isomers) [Compound 34]	3.22	8.38	5.81	6.49	
COCc1nc(Nc2ccc(C#N)cc2)nc(Oc2c(C)cc(C=CC#N)cc2C)c1C(=O)NCc1ccncc1 (mixture of isomers) [Compound 33]	3.54	8.40	5.91	7.03	
COCc1nc(Nc2ccc(C#N)cc2)nc(Nc2c(C)cc(C=CC#N)cc2C)c1C(=O)N1CCC(O)CC1 (mixture of isomers) [Compound 27]	>3.61	8.21	5.21	5.79	
COCCNC(=O)c1c(COC)nc(Nc2ccc(C#N)cc2)nc1Nc1c(C)cc(C=C(C)C#N)cc1C (mixture of isomers) [Compound 32]		8.48	7.05	7.80	
COCc1nc(Nc2ccc(C#N)cc2)nc(Nc2c(C)cc(/C=C/C#N)cc2C)c1C(=O)N1CCN(CCO)CC1 [Compound 17]	>2.83	7.43	5.19	6.59	
COCc1nc(Nc2ccc(C#N)cc2)nc(Nc2c(C)cc(C=CC#N)cc2C)c1C(=O)NCCN1CCOCC1 (mixture of isomers) [Compound 14]	3.70	8.41	6.42	6.67	
COCc1nc(Nc2ccc(C#N)cc2)nc(Nc2c(C)cc(/C=C/C#N)cc2C)c1C(=O)NC1CC1 [Compound 23]	3.87	8.62	6.85	7.81	
COCc1nc(Nc2ccc(C#N)cc2)nc(Nc2c(C)cc(/C=C/C#N)cc2C)c1C(=O)NCCc1ccccn1 [Compound 15]	3.52	8.55	6.43	7.24	
COCCNC(=O)c1c(COC)nc(Nc2ccc(C#N)cc2)nc1Oc1c(C)cc(C=CC#N)cc1C (mixture of isomers) [Compound 35]	3.76	8.54	6.18	7.09	
COCc1nc(Nc2ccc(C#N)cc2)nc(Nc2c(C)cc(C=CC#N)cc2C)c1C(=O)NCCc1ccc(S(N)(=O)=O)cc1 (mixture of isomers) [Compound 29]	>3.23	7.83	6.72	7.01	
COCc1nc(Nc2ccc(C#N)cc2)nc(Nc2c(C)cc(C=CC#N)cc2C)c1C(=O)N1CCCC(C(N)=O)C1 (mixture of isomers) [Compound 22]	>2.66	7.27	5.64	6.22	
COCc1nc(Nc2ccc(C#N)cc2)nc(Nc2c(C)cc(C=CC#N)cc2C)c1C(=O)N(C)CCN(C)C (mixture of isomers) [Compound 21]	2.53	7.49	5.44	6.31	
C=CCNC(=O)c1c(COC)nc(Nc2ccc(C#N)cc2)nc1Nc1c(C)cc(/C=C/C#N)cc1C [Compound 24]			6.72	7.99	8.66
COCc1nc(Nc2ccc(C#N)cc2)nc(Nc2c(C)cc(/C=C/C#N)cc2C)c1C(=O)NCCN(C)C [Compound 13]	3.32	8.41	5.69	6.81	
COCc1nc(Nc2ccc(C#N)cc2)nc(Nc2c(C)cc(/C=C/C#N)cc2C)c1C(=O)NCC(OC)OC [Compound 19]	3.83	8.59	6.97	7.38	
COCc1nc(Nc2ccc(C#N)cc2)nc(Nc2c(C)cc(C=CC#N)cc2C)c1C(=O)NCc1cccnc1 (mixture of isomers) [Compound 8]	3.13	8.54	7.07	7.57	
COCc1nc(Nc2ccc(C#N)cc2)nc(Nc2c(C)cc(C=CC#N)cc2C)c1C(=O)NCC1CCCO1 (mixture of isomers) [Compound 9]	3.55	8.28	6.45	7.26	
COCc1nc(Nc2ccc(C#N)cc2)nc(Nc2c(C)cc(/C=C/C#N)cc2C)c1C(=O)NCCc1cccs1 [Compound 30]	>3.24	7.84	5.79	6.67	
COCc1nc(Nc2ccc(C#N)cc2)nc(Nc2c(C)cc(C=CC#N)cc2C)c1C(=O)NCCNC(C)=O (mixture of isomers) [Compound 12]	3.59	8.25	6.68	7.42	
COCc1nc(Nc2ccc(C#N)cc2)nc(Nc2c(C)cc(C=CC#N)cc2C)c1C(=O)NCCC#N (mixture of isomers) [Compound 16]	4.22	8.90	7.03	7.55	
COCc1nc(Nc2ccc(C#N)cc2)nc(Nc2c(C)cc(C=CC#N)cc2C)c1C(=O)NCc1cccs1 (mixture of isomers) [Compound 18]	>3.63	8.23	6.42	6.97	
COCc1nc(Nc2ccc(C#N)cc2)nc(Nc2c(C)cc(/C=C/C#N)cc2C)c1C(=O)NCc1ccccn1 [Compound 20]	3.81	8.83	7.03	7.28	
COCc1nc(Nc2ccc(C#N)cc2)nc(Nc2c(C)cc(C=CC#N)cc2C)c1C(=O)NCc1ccncc1 (mixture of isomers) [Compound 11]	3.59	8.47	7.24	7.43	
COCCNC(=O)c1c(COC)nc(Nc2ccc(C#N)cc2)nc1Nc1c(C)cc(C=CC#N)cc1C (mixture of isomers) [Compound 10]	3.44	8.46	7.30	8.10	
